{"source": "patent US20240335563A1", "about": "“EPIGENETIC MODULATORS FOR TISSUE REPROGRAMMING” (THE TRUSTEES OF INDIANA UNIVERSITY, priority 2021, published 2024)", "key": {"[1]": {"tested_on": "intermediate iPSCs", "settings": "cited from earlier work; for SCR efficiency: HDAC inhibition"}, "[2]": {"tested_on": "neural precursor cells and MEFs", "settings": "G9a inhibition, H3K9 hypomethylation; cited from earlier work"}, "[3]": {"tested_on": "streptozotocin-induced diabetic C57BL/6 male mice", "assay": "Blood glucose in streptozotocin-induced diabetic mice after TNT-PMGF, with intradermal epigenetic modulator", "type": "in vivo", "settings": "p<0.001 vs. week 4"}, "[4]": {"tested_on": "mouse fibroblasts", "settings": "LSD1 inhibition; cited from earlier work"}, "[5]": {"tested_on": "ESC-specific genes", "settings": "alone, without transduction of the reprogramming factors; cited from earlier work"}}, "data": [{"smiles": "CCCC(CCC)C(=O)O", "note": "[valproic acid]", "values": [{"measurement": "SCR efficiency", "setting": "[1]", "result": "improves SCR efficiency"}]}, {"smiles": "COc1cc2nc(N3CCCN(C)CC3)nc(NC3CCN(Cc4ccccc4)CC3)c2cc1OC", "note": "[BIX-01294]", "values": [{"measurement": "reprogramming of neural precursor cells and MEFs into iPSCs", "setting": "[2]", "result": "enhances the reprogramming"}]}, {"smiles": "Nc1ncn([C@@H]2O[C@H](CO)[C@@H](O)[C@H]2O)c(=O)n1", "note": "[5-Azacytidine]", "values": [{"measurement": "average blood glucose", "setting": "[3]; week 5, after 5-Azacytidine 10 mg/Kg intradermally at TNT sites thrice in week 4, TNT PMGF non-responders", "result": "~275", "unit": "mg/dL"}, {"measurement": "blood glucose", "setting": "[3]; week 8, after subsequent 5-Azacytidine injection at week 7", "result": "~170", "unit": "mg/dL"}, {"measurement": "blood glucose", "setting": "[3]; week 9, after subsequent 5-Azacytidine injection at week 7", "result": 169, "unit": "mg/dL"}, {"measurement": "reprogramming of intermediate iPSCs", "setting": "[1]; DNMT inhibition during reprogramming", "result": "allows intermediate iPSCs to be fully reprogrammed"}]}, {"smiles": "N[C@@H]1C[C@H]1c1ccccc1", "note": "(racemic) [Parnate, tranylcypromine]", "values": [{"measurement": "reprogramming efficiency of mouse fibroblasts", "setting": "[4]", "result": "increases the reprogramming efficiency"}]}, {"smiles": "CC(/C=C/C(=O)NO)=C\\[C@@H](C)C(=O)c1ccc(N(C)C)cc1", "note": "[trichostatin A]", "values": [{"measurement": "upregulation of ESC-specific genes", "setting": "[5]", "result": "sufficient to upregulate ESC-specific genes"}, {"measurement": "SCR efficiency", "setting": "[1]", "result": "improves SCR efficiency"}]}]}
